Reference: US12172992B2, “Pyrimidines for degrading Bruton's tyrosine kinase” (AbbVie Inc., priority 2022, dated 2024)

Legend:
[1] = target: BTK protein in human whole blood (Homo sapiens (Human), UniProt Q06187); experiment: Btk protein in human whole blood MSD ELISA based assay (BTK degradation); type: cell-based; conditions: 6 hours, maximum BTK degradation compared to DMSO only treated samples, read-out: hWB BTK dMax (%)
Protocol: Btk protein degradation was tested using an Meso Scale Discovery-ELISA system (MSD-ELISA): (1) Test compounds were added to human whole blood; (2) human whole blood cells treated with test compounds were lysed; (3) lysed cells were treated with capture antibody, an antibody to Btk; (4) lysed cells were treated with […] to Btk; and (5) lysed cells were treated with anti-mouse antibody (tagged).
Specifically, about 80 μl of fresh human whole blood from healthy donors was transferred into each well of a 96-well V-bottom plate (Costar, Cat No. 3894). Using a TECAN™ D300e Digital Dispenser (Tecan)), 1:4 serially diluted compounds [(8 pt assay) in DMSO solution (final 0.2%) starting at 3 μM top concentration], were added in duplicate. Thereafter, plates were placed in a 37° C. incubator and incubated for 6 hours.
At the end of incubation, 80 μl of 2×CST lysis buffer (Cell Signaling Technology, Cat No. 9803), prepared from a 10× stock solution, was added per well to lyse the blood. Plates were then sealed with a plate sealer and the samples were frozen overnight at −80° C.
Total amount of BTK protein remaining in the blood samples after compound treatment was measured using MSD-ELISA. After thawing the frozen plates, blood lysates were mixed thoroughly and transferred to small spot high-bind MSD plates (Meso Scale Discovery, Cat No. L45XB-3) and coated with capturing antibody, rabbit anti-human BTK (D3H5) (Cell Signaling Technology, Cat No. 8547CF). Thereafter, primary detection antibody, mouse anti-human BTK monoclonal antibody, (BD Biosciences, Cat No. 611117) and secondary detection antibody, anti-mouse SULFO-TAG (Meso Scale Discovery, Cat No. R32AC-1) were added. The assay plates were read on an MSD S600 plate reader by the addition of 2×MSD read buffer (Meso Scale Discovery, R92TC-1). All reagent transfers, including blood lysis, was conducted using a Biomed i7 liquid handler. From the dose response curves, DC50 values were calculated by averaging data from duplicate experiments. and Curve fitting was done by non-linear regression using GraphPad Prism. The DC50 values are reported in Table 2 in the hWB BTK DC50 (nM) column The Dmax values represent the maximum amount of BTK degradation observed upon compound treatment compared to DMSO only treated samples. The dMax (%) values are reported in Table 2 in the hWB BTK dMax (%) column.

[2] = system: TCL1-driven CLL bearing BTK^C481S mutation; experiment: TCL1-driven CLL bearing BTK C481S mutation in C57BL/6 mice, circulating leukemia burden; type: in vivo, mouse
Source text: EIA-TCL1 CLL transgenic mice (Crogen Pharmaceuticals LLC) were crossed with BTK^C481S knock-in mice (AbbVie) to generate Eμ-TCL1 transgenic mice carrying the BTK^C481S mutation. The leukemic splenocytes from these BTK^C481S Eμ-TCL1 transgenic mice (Passage 1) were transplanted intravenously into C57BL/6 mice, leading to CLL development in the peripheral blood and spleen. When circulating CLL burden (CD5+CD19+ cells as described below) in the recipient mice reached over 90%, their splenocytes (Passage 2) containing high CLL burden were cryopreserved and used for CLL efficacy studies. […]
To determine the absolute/total leukocyte numbers, complete blood counts were determined for each mouse using the Genesis™ veterinary hematology analyzer (Oxford Science Inc.).
Cells isolated from murine peripheral blood mononuclear cells (PMBCs) were collected to determine antigen expression. […] Cells were gated on CD45+, and thereafter the percentage of cells that were CD5+CD19+ from that subset was calculated. […]
Whole blood was collected weekly post tumor implantation via submandibular cheek bleeding. Circulating leukemic burden was calculated by multiplying absolute/total leukocyte count with the percentage of the leukocytes have the immunophenotype CD19^+CD5^+. […]

Sequence of BTK protein in human whole blood (Q06187 whole entry): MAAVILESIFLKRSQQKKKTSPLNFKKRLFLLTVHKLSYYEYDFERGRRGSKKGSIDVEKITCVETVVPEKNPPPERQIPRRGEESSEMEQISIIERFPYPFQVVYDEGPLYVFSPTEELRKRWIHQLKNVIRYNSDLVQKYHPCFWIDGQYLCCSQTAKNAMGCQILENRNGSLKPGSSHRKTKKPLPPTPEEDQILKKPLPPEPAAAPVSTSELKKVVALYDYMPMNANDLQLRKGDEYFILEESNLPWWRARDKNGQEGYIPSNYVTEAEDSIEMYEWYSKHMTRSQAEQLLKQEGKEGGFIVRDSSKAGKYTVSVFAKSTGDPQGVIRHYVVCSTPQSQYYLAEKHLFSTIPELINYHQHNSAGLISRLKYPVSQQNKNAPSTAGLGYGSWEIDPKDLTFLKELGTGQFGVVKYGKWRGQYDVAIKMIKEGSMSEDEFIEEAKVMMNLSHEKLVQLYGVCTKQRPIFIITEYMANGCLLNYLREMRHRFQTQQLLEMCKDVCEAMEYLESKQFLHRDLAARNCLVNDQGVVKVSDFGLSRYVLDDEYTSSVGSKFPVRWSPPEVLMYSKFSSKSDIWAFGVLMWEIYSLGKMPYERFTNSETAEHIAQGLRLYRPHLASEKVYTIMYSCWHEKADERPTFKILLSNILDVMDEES

- Dmax [1]: 100%
Structure (SMILES): Cc1cc(-c2cc(Nc3ccc(N4CCN(CCc5ccc(N6CCC(=O)NC6=O)cc5)C[C@@H]4C)cn3)ncn2)ccc1[C@@H](C)NC(=O)c1nc(C(C)(C)C)no1 [Example 1, 3-tert-butyl-N-[(1R)-1-{4-[6-({5-[(2S)-4-{2-[4-(2,4-dioxo-1,3-diazinan-1-yl)phenyl]ethyl}-2-methylpiperazin-1-yl]pyridin-2-yl}amino)pyrimidin-4-yl]-2-methylphenyl}ethyl]-1,2,4-oxadiazole-5-carboxamide]
- CLL burden control (no increase from the initial tumor burden) ([2]; QD for 19 days, at Dosage 3 and Dosage 4): Complete CLL burden control
- circulating leukemia burden (CD19+CD5+ CLL cells per μL) ([2]; once daily (QD) for 19 days, Dosage 1-4, FIG. 1): controlled circulating leukemia burden of the TCL1-driven CLL bearing BTK^C481S mutation in C57BL/6 mice in a dose-dependent manner
